pIC50: −log10 of the molar value.

In one assay the target is HIV reverse transcriptase (Human immunodeficiency virus type 1 group M subtype B, UniProt P03366). Put plainly: Reverse transcriptase scintillation proximity assay (Example 4, Table 2). The format is biochemical. The conditions noted are these: 10 μM inhibitor; relative to dimethyl sulfoxide = 100%; 3 min. The method, then: Reverse transcriptase ("RT") activity is measured using a scintillation proximity assay kit available from Amersham Life Sciences, Inc., which uses a biotin/streptavidin bead capture system. RNA-dependent polymerase activity is measured using purified […] and a synthetic 17mer/50mer RNA-DNA template-primer containing biotin at the 5' end of the DNA. The template-primer, buffer, dNTP, and inhibitor are incubated for 10 minutes at 37° C. before the RT is added. The final 100 μl reaction mixture contains: 39 nm of template primer, buffer (40 mM tris HCl at pH 8.0, 10 mM MgCl2, 60 mM KCl, 10 mM dithiothreitol); 75 nM of each dNTP except dTTP; 25 nM dTTP and 35 nM tritium labeled d*TTP; 10 μM inhibitor; and 1.0-2.0 μg of RT. After three minute incubation, the reaction is quenched with 40 μl of 0.56M EDTA. Then 10 μl of streptavidin SPA beads (in suspension) are added and incubated at 37° C. for 10 minutes. Finally, 850 μl of a buffer containing 10 mM Tris HCl pH 7.4 and 0.15M NaCl is added. The signal is produced by biotinylated polymers incorporating d*TTP binding to the streptavidin beads which stimulate the scintillant. The amount of d*TTP incorporated in the polymer is measured with a scintillation counter.
Compounds showing good inhibition will give a low number of counts/min (cpm). This number is related to a standard, dimethyl sulfoxide, which is given an arbitrary 100% relative activity. All cpm data in a single run are given a percent of this standard.
As for `O=C(Nc1ccc2c(O)c(N=Nc3ccc([As](=O)(O)O)cc3)c(S(=O)(=O)O)cc2c1)Nc1ccc2c(O)c(N=Nc3ccc([As](=O)(O)O)cc3)c(S(=O)(=O)O)cc2c1` [Compound 48], the “% RT activity remaining at 10 μM” value was 17%.

Staying with this assay, now noted: 10 μM inhibitor; relative to dimethyl sulfoxide = 100%; 3 min, 10 µM.
For the compound `CCOC(=O)c1ccc(NC(=O)Nc2ccc3c(O)cc(S(=O)(=O)O)cc3c2)cc1` [Compound 28], the “% RT activity remaining at 10 μM” value stood at 100%. For the compound `O=C(O)c1ccc(N=Nc2c(S(=O)(=O)O)cc3cc(NC(=O)c4cccc(C(=O)Nc5ccc6c(O)c(N=Nc7ccc(C(=O)O)cc7)c(S(=O)(=O)O)cc6c5)n4)ccc3c2O)cc1` [Compound 127], the “% RT activity remaining at 10 μM” value is “.14%”.

Staying with this assay, now noted: 0.05 h, 10 μM inhibitor; relative to dimethyl sulfoxide = 100%; read-out: % RT activity remaining at 10 μM.
As to `O=C(Nc1ccc2c(O)cccc2c1)Nc1ccc2c(O)cc(S(=O)(=O)O)cc2c1` [Compound 6], the remaining activity at 10 µM worked out at 84%. On the same count and under the same terms, the value for `O=C(Nc1ccc2ccc(S(=O)(=O)O)cc2c1)Nc1ccc2c(O)cc(S(=O)(=O)O)cc2c1` [Compound 7] was 78%; that for `O=C(Nc1ccc2c(O)cc(S(=O)(=O)O)cc2c1)Nc1ccc2cc(S(=O)(=O)O)cc(S(=O)(=O)O)c2c1` [Compound 8] was 83%; that for `O=C(Nc1ccc2c(O)cc(S(=O)(=O)O)cc2c1)Nc1ccc2cc(S(=O)(=O)O)cc(O)c2c1` [Compound 9] was 75%. Same read-out and setting: the value for `O=C(Nc1ccc2c(O)cc(S(=O)(=O)O)cc2c1)Nc1cccc2ccc(S(=O)(=O)O)cc12` [Compound 10] was 88%; that for `O=C(Nc1ccc2c(O)cc(S(=O)(=O)O)cc2c1)Nc1cccc2ccccc12` [Compound 11] was 90%; that for `CC(NC(=O)Nc1ccc2c(O)cc(S(=O)(=O)O)cc2c1)c1ccc(F)cc1` (centres unmarked) [Compound 12] was 88%. On the same count and under the same terms, the value for `O=C(Nc1ccc2ccccc2c1)Nc1ccc2c(O)cc(S(=O)(=O)O)cc2c1` [Compound 13] was 82%; that for `O=C(Nc1cnc2ccccc2c1)Nc1ccc2c(O)cc(S(=O)(=O)O)cc2c1` [Compound 14] was 90%. Turning to `O=C(Nc1ccc2c(c1)C(=O)c1ccccc1C2=O)Nc1ccc2c(O)cc(S(=O)(=O)O)cc2c1` [Compound 15], the remaining activity at 10 µM stood at 88%. Same read-out and setting: the value for `O=C(Nc1ccc2c(O)cc(S(=O)(=O)O)cc2c1)Nc1cccc2c(=O)[nH][nH]c(=O)c12` [Compound 16] was 81%; that for `COC(=O)C(Cc1c[nH]c2ccccc12)NC(=O)Nc1ccc2c(O)cc(S(=O)(=O)O)cc2c1` (centres unmarked) [Compound 17] was 82%; that for `Nc1cccc2c(NC(=O)Nc3ccc4c(O)cc(S(=O)(=O)O)cc4c3)cccc12` [Compound 19] was 80%. Same read-out and setting: the value for `O=C(Nc1ccc2c(O)cc(S(=O)(=O)O)cc2c1)Nc1cccc2c1C(=O)c1ccccc1C2=O` [Compound 20] was 86%. On the same count and under the same terms, the value for `O=C(Nc1ccc2c(O)cc(S(=O)(=O)O)cc2c1)c1ccccc1` [Compound 21] was 108%; that for `CC(=O)Nc1ccc2c(OC(C)=O)cc(S(=O)(=O)O)cc2c1` [Compound 22] was 100%; that for `O=C1c2ccccc2C(=O)N1c1ccc2c(O)cc(S(=O)(=O)O)cc2c1` [Compound 23] was 100%. For `COC(=O)c1ccccc1NC(=O)Nc1ccc2cc(S(=O)(=O)O)cc(O)c2c1` [Compound 24], the remaining activity at 10 µM amounted to 90%.

Consider `CCOC(=O)c1ccc(NC(=O)Nc2ccc3c(O)cc(S(=O)(=O)O)cc3c2)cc1` [Compound 25], for which the remaining activity at 10 µM came out at 86%. Still for that read-out and setting: the value for `COC(=O)c1cc(NC(=O)Nc2ccc3c(S(=O)(=O)O)cc(S(=O)(=O)O)cc3c2)cc(C(=O)OC)c1` [Compound 26] was 88%; that for `COC(=O)c1cc(NC(=O)Nc2ccc3cc(S(=O)(=O)O)cc(O)c3c2)cc(C(=O)OC)c1` [Compound 27] was 80%. Still for that read-out and setting: the value for `COC(=O)c1ccccc1NC(=O)Nc1ccc2c(O)cc(S(=O)(=O)O)cc2c1` [Compound 29] was 108%; that for `CCOC(=O)c1ccc(N=Nc2c(S(=O)(=O)O)cc3cc(NC(=O)Nc4ccc5c(O)c(N=Nc6ccc(C(=O)OCC)cc6)c(S(=O)(=O)O)cc5c4)ccc3c2O)cc1` [Compound 44] was 19%; that for `CCOC(=O)c1cccc(NC(=O)Nc2ccc3cc(S(=O)(=O)O)cc(O)c3c2)c1` [Compound 75] was 85%. `O=C(Nc1ccc2cc(S(=O)(=O)O)cc(O)c2c1)Nc1ccc2cc(S(=O)(=O)O)cc(O)c2c1` [Compound 77]: the remaining activity at 10 µM stood at 84%. With `O=C(Nc1ccc2cc(S(=O)(=O)O)cc(S(=O)(=O)O)c2c1)Nc1ccc2cc(S(=O)(=O)O)cc(S(=O)(=O)O)c2c1` [Compound 78], the remaining activity at 10 µM amounted to 80%.

For the compound `O=C(Nc1ccc(S(=O)(=O)O)c2ccccc12)Nc1ccc(S(=O)(=O)O)c2ccccc12` [Compound 79], the remaining activity at 10 µM worked out at 78%. The same measure, in the same setting: the value for `O=C(Nc1ccc2ccc(S(=O)(=O)O)cc2c1)Nc1ccc2ccc(S(=O)(=O)O)cc2c1` [Compound 80] was 84%. Still for that read-out and setting: the value for `O=C(Nc1ccc2c(S(=O)(=O)O)cccc2c1)Nc1ccc2c(S(=O)(=O)O)cccc2c1` [Compound 81] was 78%; that for `O=C(Nc1ccc2cc(S(=O)(=O)O)ccc2c1)Nc1ccc2cc(S(=O)(=O)O)ccc2c1` [Compound 82] was 92%. Same read-out and setting: the value for `COC(=O)c1cc(NC(=O)Nc2ccc3c4c(cccc24)C(=O)OC3=O)cc(C(=O)OC)c1` [Compound 83] was 77%. For the compound `CCOC(=O)c1ccc(N=Nc2c(S(=O)(=O)O)cc3ccc(NC(=O)Nc4ccc5cc(S(=O)(=O)O)c(N=Nc6ccc(C(=O)OCC)cc6)c(O)c5c4)cc3c2O)cc1` [Compound 84], the remaining activity at 10 µM amounted to 1.7%.

For the compound `O=C(O)c1ccc(N=Nc2c(S(=O)(=O)O)cc3cc(NC(=O)c4cccc(C(=O)Nc5ccc6c(O)c(N=Nc7ccc(C(=O)O)cc7)c(S(=O)(=O)O)cc6c5)n4)ccc3c2O)cc1` [Compound 118], the remaining activity at 10 µM was determined as 0.25%. Same read-out and setting: the value for `O=C(O)Cc1ccc(N=Nc2c(S(=O)(=O)O)cc3cc(NC(=O)c4cccc(C(=O)Nc5ccc6c(O)c(N=Nc7ccc(CC(=O)O)cc7)c(S(=O)(=O)O)cc6c5)n4)ccc3c2O)cc1` [Compound 119] was 0.29%; that for `O=C(O)CCc1ccc(N=Nc2c(S(=O)(=O)O)cc3cc(NC(=O)c4cccc(C(=O)Nc5ccc6c(O)c(N=Nc7ccc(CCC(=O)O)cc7)c(S(=O)(=O)O)cc6c5)n4)ccc3c2O)cc1` [Compound 120] was 0.21%; that for `O=C(O)CCCCCc1ccc(N=Nc2c(S(=O)(=O)O)cc3cc(NC(=O)c4cccc(C(=O)Nc5ccc6c(O)c(N=Nc7ccc(CCCCCC(=O)O)cc7)c(S(=O)(=O)O)cc6c5)n4)ccc3c2O)cc1` [Compound 121] was 0.16%. In the case of `O=C(O)/C=C/c1ccc(N=Nc2c(S(=O)(=O)O)cc3cc(NC(=O)c4cccc(C(=O)Nc5ccc6c(O)c(N=Nc7ccc(/C=C/C(=O)O)cc7)c(S(=O)(=O)O)cc6c5)n4)ccc3c2O)cc1` [Compound 123], the remaining activity at 10 µM stood at 0.2%. On to `O=C(O)CC(C(=O)O)c1ccc(N=Nc2c(S(=O)(=O)O)cc3cc(NC(=O)c4cccc(C(=O)Nc5ccc6c(O)c(N=Nc7ccc(C(CC(=O)O)C(=O)O)cc7)c(S(=O)(=O)O)cc6c5)n4)ccc3c2O)cc1` (centres unmarked) [Compound 124], for which the remaining activity at 10 µM was found to be 1.2%. Same read-out and setting: the value for `O=C(Nc1ccc2c(O)c(N=Nc3cc(F)c(F)c(C(=O)O)c3F)c(S(=O)(=O)O)cc2c1)c1cccc(C(=O)Nc2ccc3c(O)c(N=Nc4cc(F)c(F)c(C(=O)O)c4F)c(S(=O)(=O)O)cc3c2)n1` [Compound 126] was 0.16%. For the compound `COc1cc(N=Nc2c(S(=O)(=O)O)cc3cc(NC(=O)c4cccc(C(=O)Nc5ccc6c(O)c(N=Nc7cc(OC)c(OC)c(OC)c7C(=O)O)c(S(=O)(=O)O)cc6c5)n4)ccc3c2O)c(C(=O)O)c(OC)c1OC` [Compound 128], the remaining activity at 10 µM was found to be 5%. Take `Cc1cc(C(=O)O)ccc1N=Nc1c(S(=O)(=O)O)cc2cc(NC(=O)c3cccc(C(=O)Nc4ccc5c(O)c(N=Nc6ccc(C(=O)O)cc6C)c(S(=O)(=O)O)cc5c4)n3)ccc2c1O` [Compound 130]: the remaining activity at 10 µM amounted to 0.35%.

`O=C(Nc1ccc2c(O)cc(S(=O)(=O)O)cc2c1)c1cc(=O)cc(C(=O)Nc2ccc3c(O)cc(S(=O)(=O)O)cc3c2)o1` [Compound 131]: the remaining activity at 10 µM was 48%.

The assay is the same for the next values; noted with them: 0.05 h, read-out: % RT activity remaining at 10 μM.
As to `O=C(NC(=O)Oc1ccccc1)Nc1ccc2cc(S(=O)(=O)O)cc(O)c2c1` [Compound 30], the remaining activity at 10 µM is 87%.

The assay is the same for the next values; noted with them: read-out: IC50 (RT activity).
`O=C(O)/C=C/c1ccc(N=Nc2c(S(=O)(=O)O)cc3ccc(NC(=O)Nc4ccc5cc(S(=O)(=O)O)c(N=Nc6ccc(/C=C/C(=O)O)cc6)c(O)c5c4)cc3c2O)cc1` [Compound 86]: the pIC50 is 5.92.
